One data set has as its target T1, DYRK1A (Homo sapiens, UniProt Q13627).
T1 construct: Purified recombinant kinase was incubated with serial 3-fold dilutions of test compounds; purchased Reaction Biology Corporation
Nature of the data set: DYRK1A kinase assay, Reaction Biology Corporation HotSpot technology (33P ATP). The data set is classed as biochemical. Conditions: for IC50: purified recombinant kinase, 10 µM ATP, 120 min, room temperature.

The target of a further data set is T2, DYRK1B (Homo sapiens, UniProt Q9Y463).
T2 construct: Purified recombinant kinase was incubated with serial 3-fold dilutions of test compounds; purchased Reaction Biology Corporation
T2 sequence (Q9Y463 whole entry): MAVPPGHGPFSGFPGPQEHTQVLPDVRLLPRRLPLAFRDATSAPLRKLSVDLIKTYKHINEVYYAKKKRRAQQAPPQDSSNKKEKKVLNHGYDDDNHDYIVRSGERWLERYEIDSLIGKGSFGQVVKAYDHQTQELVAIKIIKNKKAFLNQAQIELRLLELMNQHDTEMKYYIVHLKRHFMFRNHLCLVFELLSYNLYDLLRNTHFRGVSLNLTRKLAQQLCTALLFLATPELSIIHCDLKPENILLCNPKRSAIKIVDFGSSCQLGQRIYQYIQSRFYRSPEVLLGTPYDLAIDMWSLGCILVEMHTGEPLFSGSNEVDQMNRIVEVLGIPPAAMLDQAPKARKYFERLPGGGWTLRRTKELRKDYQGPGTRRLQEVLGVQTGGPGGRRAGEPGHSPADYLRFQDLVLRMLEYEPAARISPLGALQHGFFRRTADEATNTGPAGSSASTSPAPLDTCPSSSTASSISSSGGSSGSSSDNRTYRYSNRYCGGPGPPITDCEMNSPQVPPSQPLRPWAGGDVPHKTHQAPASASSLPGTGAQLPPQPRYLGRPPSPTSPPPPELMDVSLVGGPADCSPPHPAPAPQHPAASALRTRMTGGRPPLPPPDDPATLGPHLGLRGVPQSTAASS
Nature of the data set: DYRK1B kinase assay, Reaction Biology Corporation HotSpot technology (33P ATP). Type of data set: biochemical. The conditions noted are these: purified recombinant kinase, 10 µM ATP, 120 min, room temperature.

The subject of data set [1] is B- and T-ALL cell lines and primary human pediatric ALL samples. The arrangement: method as in doi:10.1182/blood-2013-06-507368. Conditions: cited from earlier work.
Data set [2] concerns patient-derived ovarian cancer ascites spheroids. Conditions: cited from earlier work.
The next data set concerns Panc1 xenograft. Conditions: cited from earlier work.

`COC(=O)c1nc2ccc3ncnc(Nc4ccc5c(c4)OCO5)c3c2s1` [Compound 13, Methyl 9-(benzo[d][1,3]dioxol-5-ylamino)thiazolo[5,4-f]quinazoline-2-carboxylate]: the “Affinity for DYRK1A, result in words” value on DYRK1A (compared with parent methyl carbimidate / secondary amine analogs) is “mostly inactive”. Usually IC50 stands for the midpoint of a concentration-inhibition curve. Consider `CC(C)(C)CNc1ncnc2ccc(-c3ccc4c(c3)OCO4)cc12` [NCGC-00189310, reference compound], for which the half-inhibitory concentration (IC50) on DYRK1A amounted to 2.2 nM; at DYRK1B, 20.6 nM.

Regarding `COC(=N)c1nc2ccc3ncnc(Nc4ccc(OC)cc4F)c3c2s1` [Compound 8i, Methyl 9-(2-fluoro-4-methoxyphenylamino)thiazolo[5,4-f]quinazoline-2-carbimidate], in data set [1], the “Apoptosis induction in B- and T-ALL cell lines and primary human pediatric ALL samples” value is on record as “dose-dependently induce apoptosis”. Also, the “Apoptosis of primary ALL cells resistant to cytarabine” value in data set [1] (cytarabine-resistant primary ALL cells) is reported as “induced apoptosis”. For `COC(=N)c1nc2ccc3ncnc(Nc4ccc(Cl)c(Cl)c4)c3c2s1` [Compound 8d, Methyl 9-(3,4-dichlorophenylamino)thiazolo[5,4-f]quinazoline-2-carbimidate], the IC50 on DYRK1A is 66.8 nM. On to `COC(=N)c1nc2ccc3ncnc(Nc4ccc(C)cc4)c3c2s1` [Compound 9b, Methyl 9-(p-tolylamino)thiazolo[5,4-f]quinazoline-2-carbimidate], for which the IC50 amounted to 0.98 nM at DYRK1A and 2.83 nM at DYRK1B. For the molecule `COC(=N)c1nc2ccc3ncnc(Nc4ccc(Cl)cc4Cl)c3c2s1` [Compound 8c, Methyl 9-(2,4-dichlorophenylamino)thiazolo[5,4-f]quinazoline-2-carbimidate], the IC50 at DYRK1A was found to be 0.22 nM; on DYRK1B, 0.28 nM. In data set [2], the “Activity in patient-derived ovarian cancer ascites spheroids” value is given as “promising activities”. Also, the “Toxicity in mice (Panc1 xenograft model)” value in the data set with Panc1 xenograft is on record as “without detectable toxicity”. Further, the “In vivo activity in Panc1 xenograft model” value in the data set on Panc1 xenograft (mice) is reported as “in vivo activities”. In the case of `COC(=N)c1nc2ccc3ncnc(Nc4ccc(F)cc4)c3c2s1` [Compound 8e, Methyl 9-(4-fluorophenylamino)thiazolo[5,4-f]quinazoline-2-carbimidate], the IC50 worked out at 6.06 nM on DYRK1A and 9.64 nM at DYRK1B. With `COC(=N)c1nc2ccc3ncnc(Nc4cc(OC)c(OC)c(OC)c4)c3c2s1` [Compound 7l, Methyl 9-(3,4,5-trimethoxyphenylamino)thiazolo[5,4-f]quinazoline-2-carbimidate], the IC50 at DYRK1A was determined as 436 nM; on DYRK1B it was 486 nM.

On to `COC(=N)c1nc2ccc3ncnc(Nc4ccc5c(c4)OCCO5)c3c2s1` [Compound 7c, Methyl 9-(2,3-dihydrobenzo[b][1,4]dioxin-6-ylamino)thiazolo[5,4-f]quinazoline-2-carbimidate], for which the IC50 on DYRK1A worked out at 8 nM.

As for `COC(=N)c1nc2ccc3ncnc(Nc4ccc(C(C)(C)C)cc4)c3c2s1` [Compound 9c, Methyl 9-(4-tert-butylphenylamino)thiazolo[5,4-f]quinazoline-2-carbimidate], the IC50 on DYRK1A stood at 39 nM; at DYRK1B it was 93.8 nM.

`COC(=N)c1nc2ccc3ncnc(Nc4ccc(Cl)cc4)c3c2s1` [Compound 8a, Methyl 9-(4-chlorophenylamino)thiazolo[5,4-f]quinazoline-2-carbimidate]: the figures for the IC50 at DYRK1A and at DYRK1B were 1.13 nM and 4.74 nM, respectively. Taken in the same sequence, the figures for `COC(=N)c1nc2ccc3ncnc(Nc4ccccc4)c3c2s1` [Compound 9a, Methyl 9-(phenylamino)thiazolo[5,4-f]quinazoline-2-carbimidate] were 1.81 nM and 3.48 nM. Take `COC(=N)c1nc2ccc3ncnc(Nc4cccc(Cl)c4)c3c2s1` [Compound 8b, Methyl 9-(3-chlorophenylamino)thiazolo[5,4-f]quinazoline-2-carbimidate]: the IC50 stood at 13.6 nM on DYRK1A and 18.8 nM on DYRK1B. The matching figures for `N=C(OCc1ccccc1)c1nc2ccc3ncnc(Nc4ccc5c(c4)OCO5)c3c2s1` [Compound 12c, Benzyl 9-(benzo[d][1,3]dioxol-5-ylamino)thiazolo[5,4-f]quinazoline-2-carbimidate]: 33.9 nM and 37.3 nM. Turning to `COC(=N)c1nc2ccc3ncnc(Nc4ccc5c(c4)OCO5)c3c2s1` [Compound 7b, methyl 9-(benzo[d][1,3]dioxol-5-ylamino)thiazolo[5,4-f]quinazoline-2-carbimidate], on DYRK1B, the IC50 worked out at 4.2 nM. By melting point is commonly meant the temperature, or range, at which the solid turns liquid. Take `CC(C)OC(=N)c1nc2ccc3ncnc(Nc4ccc5c(c4)OCO5)c3c2s1` [Compound 12b, Isopropyl 9-(benzo[d][1,3]dioxol-5-ylamino)thiazolo[5,4-f]quinazoline-2-carbimidate]: the melting point was in the range of 224 to 226 °C. The IC50 on DYRK1A came out at 125 nM. Besides, at DYRK1B, the IC50 amounted to 218 nM. As for `COC(=N)c1nc2ccc3ncnc(Nc4ccc(O)c([N+](=O)[O-])c4)c3c2s1` [Compound 7k, Methyl 9-(4-hydroxy-3-nitrophenylamino)thiazolo[5,4-f]quinazoline-2-carbimidate], the results for the IC50 at DYRK1A and at DYRK1B were 4.91 nM and 5.68 nM, respectively. The matching figures for `COC(=N)c1nc2ccc3ncnc(Nc4ccc(N(C)C)cc4)c3c2s1` [Compound 9h, Methyl 9-(4-(dimethylamino)phenylamino)thiazolo[5,4-f]quinazoline-2-carbimidate]: 35.6 nM and 64.3 nM. The matching figures for `COC(=N)c1nc2ccc3ncnc(Nc4ccc(F)cc4F)c3c2s1` [Compound 8k, Methyl 9-(2,4-difluorophenylamino)thiazolo[5,4-f]quinazoline-2-carbimidate]: 0.94 nM and 1.07 nM.

For `COC(=N)c1nc2ccc3ncnc(Nc4cc(OC)cc(OC)c4)c3c2s1` [Compound 7g, Methyl 9-(3,5-dimethoxyphenylamino)thiazolo[5,4-f]quinazoline-2-carbimidate], the IC50 at DYRK1A was 299 nM. As to `COC(=N)c1nc2ccc3ncnc(Nc4ccc(C(F)(F)F)cc4)c3c2s1` [Compound 8l, Methyl 9-(4-(trifluoromethyl)phenylamino)thiazolo[5,4-f]quinazoline-2-carbimidate], the IC50 at DYRK1A was determined as 54.8 nM; on DYRK1B, 186 nM. Taken in the same sequence, the figures for `CCOC(=N)c1nc2ccc3ncnc(Nc4ccc5c(c4)OCO5)c3c2s1` [Compound 12a, Ethyl 9-(benzo[d][1,3]dioxol-5-ylamino)thiazolo[5,4-f]quinazoline-2-carbimidate] were 6.02 nM and 7.72 nM. Taken in the same sequence, the figures for `C#Cc1cccc(Nc2ncnc3ccc4nc(C(=N)OC)sc4c23)c1` [Compound 9d, Methyl 9-(3-ethynylphenylamino)thiazolo[5,4-f]quinazoline-2-carbimidate] were 40.8 nM and 46.3 nM. Taken in the same sequence, the figures for `COC(=N)c1nc2ccc3ncnc(Nc4ccc(C#N)cc4)c3c2s1` [Compound 9e, Methyl 9-(4-cyanophenylamino)thiazolo[5,4-f]quinazoline-2-carbimidate] were 3.89 nM and 7.69 nM.

Take `COC(=N)c1nc2ccc3ncnc(Nc4ccc(OC)cc4OC)c3c2s1` [Compound 7f, Methyl 9-(2,4-dimethoxyphenylamino)thiazolo[5,4-f]quinazoline-2-carbimidate]: the IC50 on DYRK1A worked out at 9.53 nM; at DYRK1B it was 11.1 nM. Taken in the same sequence, the figures for `COC(=N)c1nc2ccc3ncnc(Nc4cccc(C#N)c4)c3c2s1` [Compound 9f, Methyl 9-(3-cyanophenylamino)thiazolo[5,4-f]quinazoline-2-carbimidate] were 42.7 nM and 72 nM.

Turning to `COC(=N)c1nc2ccc3ncnc(Nc4ccc(OC)c(OC)c4)c3c2s1` [Compound 7e, Methyl 9-(3,4-dimethoxyphenylamino)thiazolo[5,4-f]quinazoline-2-carbimidate], the IC50 at DYRK1B worked out at 161 nM. For the molecule `COC(=N)c1nc2ccc3ncnc(Nc4ccc(Br)cc4F)c3c2s1` [Compound 8f, Methyl 9-(4-bromo-2-fluorophenylamino)thiazolo[5,4-f]quinazoline-2-carbimidate], the IC50 was determined as 3.6 nM at DYRK1A and 6.55 nM at DYRK1B.

For `COC(=N)c1nc2ccc3ncnc(Nc4ccc(O)c(F)c4)c3c2s1` [Compound 8j, Methyl 9-(3-fluoro-4-hydroxyphenylamino)thiazolo[5,4-f]quinazoline-2-carbimidate], the IC50 on DYRK1A was 8.63 nM; on DYRK1B it was 11 nM. The matching figures for `COC(=N)c1nc2ccc3ncnc(Nc4ccc(OC)cc4)c3c2s1` [Compound 7a, Methyl 9-(4-methoxyphenylamino)thiazolo[5,4-f]quinazoline-2-carbimidate]: 13.1 nM and 19.2 nM. `COC(=N)c1nc2ccc3ncnc(Nc4ccc(OC)c([N+](=O)[O-])c4)c3c2s1` [Compound 7h, Methyl 9-(4-methoxy-3-nitrophenylamino)thiazolo[5,4-f]quinazoline-2-carbimidate]: the IC50 at DYRK1A was 124 nM.

The values are drawn from publication PMC6271009, “Design and Synthesis of Thiazolo[5,4-f]quinazolines as DYRK1A Inhibitors, Part II” (Molecules, 2014).
